Results published in PubChem BioAssay AID330 (DTP/NCI, 2004).
Values joined by “and” are separate entries in the source; they are usually repeats but may differ in a detail not shown here. Equal entries are not always repeated. Toxic doses and inconclusive results are not listed. How the source made its calls: active means survival T/C of 150% or more; inactive means T/C below 125% in these data.

Test system: P388 leukemia ip, CD2F1 mice, survival T/C
Assay: NCI In Vivo Anticancer Drug Screen. Data for tumor model P388 Leukemia (intraperitoneal) in CD2F1 (CDF1) mice
Settings: endpoint: median survival time, higher = longer survival
Procedure, shortened: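 Mice carrying the transplanted tumor received test compound or vehicle. Survival was recorded in each group, and the value is the treated-group measurement divided by that of the vehicle-treated control group.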

[1] = dose: 50.0 mg/kg/injection, schedule: Q01DX009 (ip), vehicle: saline
[2] = dose: 100.0 mg/kg/injection, schedule: Q01DX009 (ip), vehicle: saline
[3] = dose: 200.0 mg/kg/injection, schedule: Q01DX009 (ip), vehicle: saline
[4] = dose: 50.0 mg/kg/injection, schedule: Q01DX009 (ip), vehicle: saline with Tween-80
[5] = dose: 100.0 mg/kg/injection, schedule: Q01DX009 (ip), vehicle: saline with Tween-80
[6] = dose: 50.0 mg/kg/injection, schedule: Q04DX003 (ip), vehicle: Klucel (hydroxypropylcellulose) (HPC)
[7] = dose: 100.0 mg/kg/injection, schedule: Q04DX003 (ip), vehicle: Klucel (hydroxypropylcellulose) (HPC)
[8] = dose: 60.0 mg/kg/injection, schedule: Q01DX005 (ip), vehicle: saline with Tween-80
[9] = dose: 120.0 mg/kg/injection, schedule: Q01DX005 (ip), vehicle: saline with Tween-80
[10] = dose: 240.0 mg/kg/injection, schedule: Q01DX005 (ip), vehicle: saline with Tween-80
[11] = dose: 12.5 mg/kg/injection, schedule: Q01DX009 (ip), vehicle: Klucel (hydroxypropylcellulose) (HPC)
[12] = dose: 25.0 mg/kg/injection, schedule: Q01DX009 (ip), vehicle: Klucel (hydroxypropylcellulose) (HPC)
[13] = dose: 50.0 mg/kg/injection, schedule: Q01DX005 (ip), vehicle: saline with Tween-80
[14] = dose: 100.0 mg/kg/injection, schedule: Q01DX005 (ip), vehicle: saline with Tween-80
[15] = dose: 200.0 mg/kg/injection, schedule: Q01DX005 (ip), vehicle: saline with Tween-80
[16] = dose: 50.0 mg/kg/injection, schedule: Q01DX005 (ip), vehicle: Klucel (hydroxypropylcellulose) (HPC)
[17] = dose: 100.0 mg/kg/injection, schedule: Q01DX005 (ip), vehicle: Klucel (hydroxypropylcellulose) (HPC)
[18] = dose: 200.0 mg/kg/injection, schedule: Q01DX005 (ip), vehicle: Klucel (hydroxypropylcellulose) (HPC)
[19] = dose: 100.0 mg/kg/injection, schedule: Q01DX001 (ip), vehicle: saline with Tween-80
[20] = dose: 200.0 mg/kg/injection, schedule: Q01DX001 (ip), vehicle: saline with Tween-80
[21] = dose: 400.0 mg/kg/injection, schedule: Q01DX001 (ip), vehicle: saline with Tween-80

Measured: T/C

CCCCCCCCCCCCCCCCONc1ccnc(=O)[nH]1
inactive: dose: 37.5 mg/kg/injection, schedule: Q01DX001 (ip), vehicle: Klucel (hydroxypropylcellulose) (HPC) 91 % of control | dose: 75.0 mg/kg/injection, schedule: Q01DX001 (ip), vehicle: Klucel (hydroxypropylcellulose) (HPC) 91 % of control

c1cc(-c2cc(-c3cc(-c4ccncc4)n[nH]3)[nH]n2)ccn1
inactive: dose: 60.0 mg/kg/injection, schedule: Q01DX005 (ip), vehicle: Klucel + Tween-80 91 % of control | dose: 120.0 mg/kg/injection, schedule: Q01DX005 (ip), vehicle: Klucel + Tween-80 100 % of control | dose: 240.0 mg/kg/injection, schedule: Q01DX005 (ip), vehicle: Klucel + Tween-80 91 % of control

O=C1CCCC2OC3CCCC(=O)C3C(c3ccccc3)C12 (stereo unspecified)
inactive: dose: 25.0 mg/kg/injection, schedule: Q01DX001 (ip), vehicle: Klucel (hydroxypropylcellulose) (HPC) 96 % of control | dose: 50.0 mg/kg/injection, schedule: Q01DX001 (ip), vehicle: Klucel (hydroxypropylcellulose) (HPC) 100 % of control | dose: 100.0 mg/kg/injection, schedule: Q01DX001 (ip), vehicle: Klucel (hydroxypropylcellulose) (HPC) 90 % of control

COc1ccccc1N1C(=O)/C(=N\OC(=O)c2c(-c3c(Cl)cccc3Cl)noc2C)SC1=S
inactive: [1] 104 % of control | [2] 90 % of control | [3] 89 % of control

C[Si](C)(C)O/C=C1\CCCCC1=O
inactive: [4] 121 % of control | [5] 106 % of control

O=c1c2c([nH]c(=S)n1-c1ccccc1)NCCC2
inactive: [6] 101 % of control | [7] 101 % of control | dose: 200.0 mg/kg/injection, schedule: Q04DX003 (ip), vehicle: Klucel (hydroxypropylcellulose) (HPC) 111 % of control

N#CNC1=C(C#N)C(c2ccccc2)CC(=O)N1 (stereo unspecified)
inactive: [8] 97 % of control | [9] 101 % of control | [10] 100 % of control

CC(CC1CCCCC1)NCCC(c1ccccc1)c1ccccc1 (stereo unspecified)
inactive: [11] 116 % of control | [12] 100 % of control

Cc1cccc(Cl)c1NC(=O)Nc1ccc(Cl)cc1C(=O)c1ccccc1
inactive: [8] 99 % of control | [9] 94 % of control | [10] 101 % of control

Cc1cc(NS(=O)(=O)c2ccc(N=c3c4ccccc4n(Cc4ccccc4)c4ccccc34)cc2)no1
inactive: [13] 98 % of control | [14] 97 % of control | [15] 88 % of control

C(=N\Nc1nnc2c3ccccc3c3ccccc3c2n1)/c1ccc2c(c1)OCO2
inactive: dose: 50.0 mg/kg/injection, schedule: Q04DX002 (ip), vehicle: suspension in saline 91 % of control | dose: 100.0 mg/kg/injection, schedule: Q04DX002 (ip), vehicle: suspension in saline 88 % of control | dose: 200.0 mg/kg/injection, schedule: Q04DX002 (ip), vehicle: suspension in saline 91 % of control

Cl[C](Cl)(Cl)[Hg][C](Cl)(Cl)Cl
inactive: dose: 1.56 mg/kg/injection, schedule: Q01DX009 (ip), vehicle: saline with Tween-80 95 % of control | dose: 3.12 mg/kg/injection, schedule: Q01DX009 (ip), vehicle: saline with Tween-80 90 % of control and 96 % of control | dose: 6.25 mg/kg/injection, schedule: Q01DX009 (ip), vehicle: saline with Tween-80 87 % of control

COCCOC(=O)Cc1ccc(OC)c(OC)c1
inactive: [2] 91 % of control | [3] 100 % of control | dose: 400.0 mg/kg/injection, schedule: Q01DX009 (ip), vehicle: saline 104 % of control

CCC(C)n1c(C)nc2ncn(-c3ccccc3)c2c1=O (stereo unspecified)
inactive: [16] 100 % of control | [17] 103 % of control | [18] 105 % of control

CCC1C2CCCCN3C(C4CC(C)C(=O)O4)CC(C4C(C)C(=O)OC14)C23 (stereo unspecified)
inactive: [16] 101 % of control | [17] 96 % of control | [18] 97 % of control | dose: 400.0 mg/kg/injection, schedule: Q01DX005 (ip), vehicle: Klucel (hydroxypropylcellulose) (HPC) 91 % of control

[CH3][Sb]([CH3])[O][Sb]([CH3])[CH3]
inactive: dose: 60.0 mg/kg/injection, schedule: Q01DX005 (ip), vehicle: saline 110 % of control | dose: 120.0 mg/kg/injection, schedule: Q01DX005 (ip), vehicle: saline 111 % of control | dose: 240.0 mg/kg/injection, schedule: Q01DX005 (ip), vehicle: saline 107 % of control

CCN(CC)CCn1cnc2c(=S)[nH]c(=S)[nH]c21
inactive: [19] 95 % of control | [20] 97 % of control | [21] 97 % of control

CCN(CC)Cc1cc(C)c(O)c(N=Nc2cccc3ccccc23)c1C
inactive: dose: 100.0 mg/kg/injection, schedule: Q04DX002 (ip), vehicle: saline with Tween-80 86 % of control | dose: 200.0 mg/kg/injection, schedule: Q04DX002 (ip), vehicle: saline with Tween-80 91 % of control | dose: 400.0 mg/kg/injection, schedule: Q04DX002 (ip), vehicle: saline with Tween-80 109 % of control

CCCCCCCCCCC/C=C/[N+](=O)[O-]
inactive: dose: 5.0 mg/kg/injection, schedule: Q01DX005 (ip), vehicle: Klucel (hydroxypropylcellulose) (HPC) 101 % of control | dose: 10.0 mg/kg/injection, schedule: Q01DX005 (ip), vehicle: Klucel (hydroxypropylcellulose) (HPC) 99 % of control | dose: 20.0 mg/kg/injection, schedule: Q01DX005 (ip), vehicle: Klucel (hydroxypropylcellulose) (HPC) 104 % of control | dose: 40.0 mg/kg/injection, schedule: Q01DX005 (ip), vehicle: Klucel (hydroxypropylcellulose) (HPC) 99 % of control

Nc1ncnc2ccccc12
inactive: [11] 107 % of control | [12] 89 % of control | dose: 50.0 mg/kg/injection, schedule: Q01DX009 (ip), vehicle: Klucel (hydroxypropylcellulose) (HPC) 108 % of control and 89 % of control | dose: 100.0 mg/kg/injection, schedule: Q01DX009 (ip), vehicle: Klucel (hydroxypropylcellulose) (HPC) 108 % of control

O=C(c1cc(F)ccc1Nc1ccccc1)N1CCOCC1
inactive: dose: 12.5 mg/kg/injection, schedule: Q01DX009 (ip), vehicle: saline 98 % of control | dose: 25.0 mg/kg/injection, schedule: Q01DX009 (ip), vehicle: saline 100 % of control | [1] 98 % of control and 109 % of control

COc1cc2c(cc1OC)[C@@H]1C(=O)c3ccc4c(c3O[C@@H]1CO2)C[C@H](C(C)C)O4
inactive: dose: 6.25 mg/kg/injection, schedule: Q01DX005 (ip), vehicle: Klucel (hydroxypropylcellulose) (HPC) 109 % of control | dose: 12.5 mg/kg/injection, schedule: Q01DX005 (ip), vehicle: Klucel (hydroxypropylcellulose) (HPC) 121 % of control and 123 % of control and 124 % of control | dose: 25.0 mg/kg/injection, schedule: Q01DX005 (ip), vehicle: Klucel (hydroxypropylcellulose) (HPC) 119 % of control

CCN(CC)CC(=O)c1ccc(O)c(O)c1
inactive: [4] 91 % of control | [5] 98 % of control and 106 % of control | dose: 200.0 mg/kg/injection, schedule: Q01DX009 (ip), vehicle: saline with Tween-80 112 % of control and 123 % of control | dose: 400.0 mg/kg/injection, schedule: Q01DX009 (ip), vehicle: saline with Tween-80 116 % of control and 117 % of control

CC1CCC2(CC1C)C(=O)NC(=O)NC2=O (stereo unspecified)
inactive: dose: 12.5 mg/kg/injection, schedule: Q04DX003 (ip), vehicle: Klucel (hydroxypropylcellulose) (HPC) 100 % of control | dose: 25.0 mg/kg/injection, schedule: Q04DX003 (ip), vehicle: Klucel (hydroxypropylcellulose) (HPC) 97 % of control | [6] 105 % of control | [7] 100 % of control

NC1=NS(=O)(=O)Nc2nn(-c3ccccc3)nc21
inactive: [19] 107 % of control | [20] 101 % of control | [21] 99 % of control

CCC1(CC)C(=O)NC(=O)NC1(OC)OC
inactive: dose: 50.0 mg/kg/injection, schedule: Q01DX005 (ip), vehicle: saline 98 % of control | dose: 100.0 mg/kg/injection, schedule: Q01DX005 (ip), vehicle: saline 106 % of control | dose: 200.0 mg/kg/injection, schedule: Q01DX005 (ip), vehicle: saline 100 % of control

c1ccc2c(c1)c1cccc3sc4cccc2c4c31
inactive: [13] 99 % of control | [14] 96 % of control | [15] 92 % of control

CC1CCC2(C)OC1OC2=O (stereo unspecified)
inactive: [13] 97 % of control | [14] 91 % of control | [15] 87 % of control
